Data from US5102871A, “Nutrient composition” (Kyowa Hakko Kogyo Co., Ltd., priority 1989, dated 1992).
Blank lines part the entries; values can stand above or below the compound they belong to. Bridge positions count the residues as written; N and C are the ends. Peptide text beside a SMILES is read from it. I, II: the chains in the order shown.

Tests used:
Solubility in water = assay type: physicochemical; conditions: pH 6.5, 25° C.
Excerpt: The solubility of γ-Glu-Cys-Cys and (γ-Glu-Cys)2 was compared with that of cystine and known cystine-containing peptides.

[1] = 25° C.; background statement; cited from earlier work
[2] = target: T1, γ-glutamyltransferase prepared from swine kidney (Sus scrofa, UniProt P20735); assay: Hydrolysis by γ-glutamyltransferase; assay type: biochemical; conditions: 5 mM peptide, Tris-hydrochloride buffer pH 7, 37° C., 120 minutes
T1 construct: γ-glutamyltransferase prepared from swine kidney; from tissue; host or cells: swine kidney
T1 sequence (P20735 1-379 limits assumed): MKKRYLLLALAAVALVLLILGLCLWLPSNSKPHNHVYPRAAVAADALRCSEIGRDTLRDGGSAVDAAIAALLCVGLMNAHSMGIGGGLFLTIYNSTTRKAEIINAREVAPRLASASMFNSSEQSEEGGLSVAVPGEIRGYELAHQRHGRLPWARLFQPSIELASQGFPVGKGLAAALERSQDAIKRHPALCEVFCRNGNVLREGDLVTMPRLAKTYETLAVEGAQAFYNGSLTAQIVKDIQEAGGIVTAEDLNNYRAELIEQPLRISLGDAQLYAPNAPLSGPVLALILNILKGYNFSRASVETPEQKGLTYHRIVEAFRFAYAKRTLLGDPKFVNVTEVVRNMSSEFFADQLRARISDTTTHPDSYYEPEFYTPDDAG
T1 sequence (P20735 380-568 limits assumed): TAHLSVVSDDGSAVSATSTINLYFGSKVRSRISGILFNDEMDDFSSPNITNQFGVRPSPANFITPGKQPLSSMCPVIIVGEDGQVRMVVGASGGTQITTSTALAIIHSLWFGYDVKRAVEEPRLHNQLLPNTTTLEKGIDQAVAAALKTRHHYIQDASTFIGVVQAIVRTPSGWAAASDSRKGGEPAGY
Procedure: It was thus recognized that there was a difference between these peptides with respect to utilization in vivo.
A peptide was dissolved in Tris-hydrochloride buffer solution (pH 7) in a concentration of 5 mM and γ-glutamyltransferase prepared from swine kidney was added to the solution. After reaction at 37° C. for 120 minutes, the amount of the remaining peptide was determined.

[3] = In vitro hydrolysis in human plasma; assay type: in vitro ADME; conditions: 37° C., 30 minutes; for remaining at 0.5 h, 2.18 mM: read-out: Residual amount in plasma (%)
Procedure: It was thus recognized that there was a clear difference between these peptides with respect to utilization in vivo.
To 100 μl of plasma collected and prepared from human was added 10 μl of a 24 mM solution of a peptide in physiological saline. After reaction at 37° C. for 30 minutes, the amount of the remaining peptide was determined.

[4] = In vitro hydrolysis in mouse plasma; assay type: in vitro ADME, C3H/He mouse; conditions: 37° C., 30 minutes; for remaining at 0.5 h, 2.46 mM: male, C3H/He mouse plasma, mean of five mice, read-out: Residual amount in plasma (%)
Procedure: To 50 μl of plasma collected and prepared from C3H/He mouse (6 weeks of age, male, weighing 22 g) was added 5 μl of a 27.1 mM solution of a peptide in physiological saline, followed by reaction at 37° C. for 30 minutes.

[5] = Uptake by mouse kidney after tail vein administration; assay type: in vivo, C3H/He mice; conditions: 250 μmoles/kg tail vein, mean (SEM on next line)
Procedure: Uptake of γ-Glu-Cys-Cys and (γ-Glu-Cys)2 by mouse kidney was compared with that of (Ala-Cys)2 according to the test method described below.
Physiological saline solutions of γ-Glu-Cys-Cys, (γ-Glu-Cys)2 and (Ala-Cys)2 were administered respectively to groups of C3H/He mice (6 weeks of age, male, weighing 22 g) through the tail vein in a dose of 250 μmoles/kg body weight, and the kidney was excised 1, 5 and 20 minutes after the administration, followed by determination of glutamic acid, alanine and cystine in the kidney.

[6] = Stability in solution on heat treatment and on standing; assay type: physicochemical; conditions: 10 mM
[7] = administered subcutaneously to mice; Anderson and Meister 1983; cited from earlier work
[8] = Stability on heating in jelly-like nutrient preparation (Example 3); assay type: physicochemical; conditions: 100° C. for 30 minutes, Example 3 composition

Solubility in 1000 ml of water (Solubility in water): 0.1 g
Structure (SMILES): N[C@@H](CSSC[C@H](N)C(=O)O)C(=O)O [Cystine, L-cystine]
solubility in water [1]: less than 0.11 g/l

Solubility in 1000 ml of water (Solubility in water): > 70 g
Hydrolysis by γ-glutamyltransferase [2]: almost completely hydrolyzed
remaining at 0.5 h, 2.18 mM [3]: 85%
remaining at 0.5 h, 2.46 mM [4]: 84%
Glu (glutamic acid) in kidney ([5]; 0 min after administration): 5.54 μmole/g wet weight of kidney
Glu (glutamic acid) in kidney ([5]; 1 min after administration): 14.82 μmole/g wet weight of kidney
Glu (glutamic acid) in kidney ([5]; 5 min after administration): 22.5 μmole/g wet weight of kidney
Glu (glutamic acid) in kidney ([5]; 20 min after administration): 18.14 μmole/g wet weight of kidney
Decomposition on standing ([6]; pH 6.5, 40° C. for 60 days): not decomposed
Decomposition by heat treatment ([6]; pH 6.5, 110° C. for 20 minutes): hardly decomposed
Structure (SMILES): N[C@@H](CCC(=O)N[C@@H](CSSC[C@H](NC(=O)CC[C@H](N)C(=O)O)C(=O)O)C(=O)O)C(=O)O [(γ-Glu-Cys)2, L-glutamyl-L-cysteine disulfide]
Hydrolysis in human plasma [3]: hydrolyzed in plasma only with difficulty
Hydrolysis in mouse plasma [4]: hydrolyzed in plasma only with difficulty
Utilization in the synthesis of kidney glutathione [7]: can be utilized in the synthesis of kidney glutathione

Solubility in 1000 ml of water (Solubility in water): > 70 g
remaining at 0.5 h, 2.18 mM [3]: 67%
remaining at 0.5 h, 2.46 mM [4]: 53%
Glu (glutamic acid) in kidney ([5]; 0 min after administration): 5.54 μmole/g wet weight of kidney
Glu (glutamic acid) in kidney ([5]; 1 min after administration): 13.09 μmole/g wet weight of kidney
Glu (glutamic acid) in kidney ([5]; 5 min after administration): 20.32 μmole/g wet weight of kidney
Glu (glutamic acid) in kidney ([5]; 20 min after administration): 15.1 μmole/g wet weight of kidney
Stability under heating of the jelly-like preparation [8]: stably maintained
Structure (SMILES): N[C@@H](CCC(=O)N[C@@H](CSSC[C@H](N)C(=O)O)C(=O)O)C(=O)O [γ-Glu-Cys-Cys]
Hydrolysis in human plasma [3]: hydrolyzed in plasma only with difficulty
Hydrolysis in mouse plasma [4]: hydrolyzed in plasma only with difficulty

Solubility in 1000 ml of water (Solubility in water): > 50 g
Structure (SMILES): N[C@@H](CS)C(=O)NCCCC[C@H](NC(=O)[C@@H](N)CS)C(=O)O [Cys-Lys(Cys), N^2 -cysteinyl-N^6 -L-cysteinyl-L-lysine] (H-Cys-Lys(Cys)-OH)

Second part, the compound before the results:

Structure (SMILES): C[C@H](NC(=O)[C@@H](N)CSSC[C@H](N)C(=O)N[C@@H](C)C(=O)O)C(=O)O [(Cys-Ala)2, L-cysteinyl-bis-L-alanine] (I: H-Cys-Ala-OH / II: H-Cys-Ala-OH; disulfide I:1-II:1)
Solubility in 1000 ml of water (Solubility in water): 8.1 g

Structure (SMILES): N[C@@H](CC(=O)O)C(=O)N[C@@H](CSSC[C@H](NC(=O)[C@@H](N)CC(=O)O)C(=O)O)C(=O)O [(Asp-Cys)2, N,N'-bis-α-aspartyl-L-cystine] (I: H-Asp-Cys-OH / II: H-Asp-Cys-OH; disulfide I:2-II:2)
Solubility in 1000 ml of water (Solubility in water): > 50 g
Hydrolysis by γ-glutamyltransferase [2]: not hydrolyzed
remaining at 0.5 h, 2.18 mM [3]: 30%

Structure (SMILES): NCC(=O)N[C@@H](CSSC[C@H](NC(=O)CN)C(=O)O)C(=O)O [(Gly-Cys)2, bis-glycyl-L-cystine, reference compound] (I: H-Gly-Cys-OH / II: H-Gly-Cys-OH; disulfide I:2-II:2)
Solubility in 1000 ml of water (Solubility in water): > 50 g
remaining at 0.5 h, 2.18 mM [3]: 35%

Structure (SMILES): C[C@H](N)C(=O)N[C@@H](CSSC[C@H](NC(=O)[C@H](C)N)C(=O)O)C(=O)O [(Ala-Cys)2, bis-α-L-alanyl-L-cystine, reference compound] (I: H-Ala-Cys-OH / II: H-Ala-Cys-OH; disulfide I:2-II:2)
Solubility in 1000 ml of water (Solubility in water): > 50 g
Hydrolysis by γ-glutamyltransferase [2]: not hydrolyzed
remaining at 0.5 h, 2.18 mM [3]: 26%
remaining at 0.5 h, 2.46 mM [4]: 0%
Ala (alanine) in kidney ([5]; 0 min after administration): 2.33 μmole/g wet weight of kidney
Ala (alanine) in kidney ([5]; 1 min after administration): 2.87 μmole/g wet weight of kidney
Ala (alanine) in kidney ([5]; 5 min after administration): 2.59 μmole/g wet weight of kidney
Ala (alanine) in kidney ([5]; 20 min after administration): 2.16 μmole/g wet weight of kidney
